Laboratory results from patent publication US10093675B2, “6,8-disubstituted-9-(heterocyclyl)purines, compositions containing these derivatives and their use in cosmetic and medicinal applications” (USTAV EXPERIMENTALNI BOTANIKY AV CR, V.V.I., priority 2014, dated 2018).

Legend:
C. elegans fem-1(hc17) = assay: Lifespan of C. elegans; format: in vivo; conditions: 100 microM, treated from 4th day of adulthood; DMSO vehiculum 12.98
Source text: C. elegans is a standard model of aging. Its relevance for human aging is generally accepted based primarily on molecular similarity in aging mechanisms and evolutionary conservation of several pathways related to health- and life-span including insulin/IGF-I signaling. (Olsen et. al 2006, doi: 10.1196/annals.1354.015) It is used for drug screening campaigns (reviewed e.g. in Kaletta et al. 2006, doi: 10.1038/nrd2031) including those searching for compounds with cytoprotective activity. Compounds with a life-span extending effect in C. elegans and known health benefits in human include resveratrol, ECG and curcumin (Liao et, al 2011, doi: 10.1016/j.mad.2011.07.008; Wood et al. 2004, doi: 10.1038/nature02789; Abbas et al. 2009, doi: 10.1055/s-0028-1088378). The strain used in this experiment was fem-1(hc17). When grown at 25° C. all animals develop into females which prevents further reproduction and contamination of experiment with progeny. Age-synchronized adults (obtained by sodium hypochlorite treatment) were maintained in liquid S-complete medium. […] Living worms (i.e those moving when exposed to intensive light) were counted in a microscope every 2-3 days until the worms reached 22nd day of adulthood. The effects of the compounds on worm life-span were evaluated in software OASIS (Yang et al 2011, doi: 10.1371/journal.pone.002352).

[1] = system: human diploid fibroblasts (HDF cells; HDF25, HDF45, HDF80); assay: Inhibition of human cell aging: senescent cells by beta-galactosidase staining; format: cell-based
In short: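 Cells of passages 25, 45 and 80 fixed 5 min at room temperature in 2% formaldehyde/0.2% glutaraldehyde in PBS, then incubated at 37° C with beta-galactosidase substrate. Senescent cells identified by blue staining.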

[2] = system: detached leaves of Triticum aestivum cv. Hereward; assay: Membrane lipid peroxidation (MDA, TBA method) in detached wheat leaves during dark senescence; format: in vivo; conditions: four days in the dark, Control 18.9 (±2.2)
In short: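 Leaf tips from 7-day wheat seedlings were kept with compound or kinetin for four days in the dark. 100 mg tissue was extracted in 80% methanol and heated 30 min at 95 °C with 0.5% TBA/0.1% TCA. MDA came from A532 minus A600, using 155 mM^−1cm^−1.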

[3] = Radical scavenging activity determined by ORAC (Oxygen Radical Absorbance Capacity); format: biochemical; conditions: Mean ± SD (n = 3); net area under the curve relative to trolox, equimolar basis
Experimental: The ability of compounds to scavenge free radicals in vitro was determined by Oxygen Radical Absorbance Capacity (ORAC) method. Fluorescein (100 μL, […]) and 25 μL of compound solution were added into each working well in a 96-well microplate preincubated at 37° C. Thereafter, 25 μL of 250 mM AAPH was quickly added, microplate was shaken for 5 s and the fluorescence (Ex. 485 nm, Em. 510 nm) was read every 3 min over 90 min by using microplate reader Infinite 200 (TECAN, Switzerland). The net area under the curve was used to express antioxidant activity relative to trolox which was used as a standard.

Structure (SMILES)	restricted mean of life-span (C. elegans fem-1(hc17))	SENESCENT CELLS (%) HDF25 ([1]; human diploid fibroblasts passage 25, beta-galactosidase staining)	SENESCENT CELLS (%) HDF45 ([1]; human diploid fibroblasts passage 45, beta-galactosidase staining)	SENESCENT CELLS (%) HDF80 ([1]; human diploid fibroblasts passage 80, beta-galactosidase staining)	MDA (nmol/g FW) [2]	ORAC (compound/trolox ratio) [3]
c1ccc(CNc2ncnc3nc[nH]c23)cc1 [6-benzylaminopurine, reference compound]	12.95	5%	9%	45%		
CC(C)=CCNc1ncnc2c1nc(NCCN)n2C1CCCCO1 (stereo not shown) [Compound 172, 8-(2-Aminoethylamino)-6-(3-methylbut-2-en-1-ylamino)-9-(tetrahydropyran-2-yl)-9H-purine]					10.8 (±0.9) nmol/g FW	28.3 ± 1.6
OCCNc1nc2c(NCc3ccco3)ncnc2n1C1CCCCO1 (stereo not shown) [Compound 181, 6-Furfurylamino-8-(2-hydroxyethylamino)-9-(tetrahydropyran-2-yl)-9H-purine]					9.5 (±0.5) nmol/g FW	78.1 ± 3.9
OCCCNc1nc2c(NCc3ccco3)ncnc2n1C1CCCCO1 (stereo not shown) [Compound 185, 6-Furfurylamino-8-(3-hydroxypropylamino)-9-(tetrahydropyran-2-yl)-9H-purine]					10.2 (±1.1) nmol/g FW	48.3 ± 2.3
